“Also recorded” adds a separate entry of the source. Where two headings read alike, the source gives them in different places.
Experiments:
NCS-1/Ric8a interaction = biological target: T1, NCS-1/Ric8a interaction (Homo sapiens, UniProt P62166); assay: Co-immunoprecipitation assay of NCS-1/Ric8a interaction in transfected HEK293 cells; type: cell-based; details: for NCS-1/Ric8a interaction: HEK293 cells transfected with human Ric8a (V5 tag) and NCS1, IP with anti-NCS1, Western blot with anti-V5, DMSO lane = baseline; for modulatory activity: stated as the reason for modelling the compounds in Drosophila Frq2, underlying test not specified
T1 construct: expressed in transfected cells; host or cells: HEK293
T1 sequence (P62166 2-190 limits assumed): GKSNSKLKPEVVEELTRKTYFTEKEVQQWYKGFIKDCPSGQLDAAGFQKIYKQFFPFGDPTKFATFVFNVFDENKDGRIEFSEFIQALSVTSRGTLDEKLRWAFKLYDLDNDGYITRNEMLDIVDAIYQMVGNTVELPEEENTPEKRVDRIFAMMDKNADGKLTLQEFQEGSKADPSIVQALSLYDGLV
T1 sequence (Q9NPQ8 whole entry partner): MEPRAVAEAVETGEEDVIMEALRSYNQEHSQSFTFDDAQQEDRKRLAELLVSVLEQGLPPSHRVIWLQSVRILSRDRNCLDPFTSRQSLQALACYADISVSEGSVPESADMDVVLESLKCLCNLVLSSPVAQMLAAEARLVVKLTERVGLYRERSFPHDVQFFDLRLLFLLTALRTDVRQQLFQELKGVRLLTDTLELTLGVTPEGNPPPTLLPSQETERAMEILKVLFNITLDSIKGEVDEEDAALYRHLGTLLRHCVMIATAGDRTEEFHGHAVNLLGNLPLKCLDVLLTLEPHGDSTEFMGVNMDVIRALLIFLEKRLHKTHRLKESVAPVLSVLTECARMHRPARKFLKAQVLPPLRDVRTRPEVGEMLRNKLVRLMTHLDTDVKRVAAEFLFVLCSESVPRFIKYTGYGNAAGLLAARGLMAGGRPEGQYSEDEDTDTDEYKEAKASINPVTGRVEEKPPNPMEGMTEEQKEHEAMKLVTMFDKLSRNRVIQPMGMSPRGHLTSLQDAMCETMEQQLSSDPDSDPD
Experimental: To identify compounds useful as modulators of the protein complex formed by NCS-1 and Ric8 (specifically as compounds useful for promoting NCS-1/Ric8a interaction), the experiment shown in Figure 1 was carried out. […] The DMSO lane represents baseline levels of NCS1/Ric8a interaction. IP was performed with anti-NCS1 antibodies, followed by the immunodetection of Ric8a in Western blot with the anti-V5 antibody.
(§1) • Figure 1. […] The DMSO lane represents […]. • Figure 2. […] The curves were fitted considering a stoichiometry of 1:1. For correct curve comparison, intensities were normalized and depicted as (I0 - I)/I0. X. The value of r^2 is 0.998. • Figure 3. […] The residues in which sequence differences are found are shown in pink. • Figure 4. These three figures show the pharmacophore group taking the compound A3H3 as an example. Specifically, groups A1, A2, and N6 (N) refer to the heteroatoms forming the central part of acylhydrazone commonly found in all the assayed compounds, in other words, the carbonyl (A1) bound to the N of amide (N6), which is in turn bound to another imine N (A2). The terms R7 (R) and R8 (R') refer to the aromatic rings which act as substituents. Both the carbonyl-bound R and the imine N-bound R are aromatic • Figure 5. […] Evaluation of the efficacy of compound A3H3 in a model for Huntington's disease. Wild-type mice WT and transgenic mice (HD) expressing exon 1 of human huntingtin (strain R6/1) were treated orally with compound A3H3 at a dose of 25 mg/kg. The treatment started at 3 months of age and lasted for 6 weeks. As a measurement of motor coordination, stride length (A) and the stay time on Rotarod (B) were analyzed.
In order to evaluate the capacity of the compounds of the invention, A3H3, A5H2, and A3H4, for modulating interaction between human NCS-1 and Ric8as, HEK293 cells were transfected with a version of epitope V5-labeled Ric8a (Ric8a-V5) and NCS-1, performing cell incubation and then cell lysis with the product to be assayed. The amount of NCS-1-bound Ric8a-V5 was then assessed by means of the immunoprecipitation technique.

dNCS-1 = biological target: T2, dNCS-1 (Drosophila melanogaster, UniProt Q9VWX8); assay: Affinity for dNCS-1 by fluorescence spectroscopy; type: binding; details: for affinity in the fluorescence technique: additional fluorescence studies, result in words
T2 sequence (Q9VWX8 1-187): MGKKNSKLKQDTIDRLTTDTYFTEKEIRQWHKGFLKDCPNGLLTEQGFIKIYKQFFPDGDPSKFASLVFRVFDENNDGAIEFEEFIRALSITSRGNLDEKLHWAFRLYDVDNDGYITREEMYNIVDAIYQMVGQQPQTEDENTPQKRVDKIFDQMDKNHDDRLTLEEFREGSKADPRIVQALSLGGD
From the text: The protein complex formed by NCS-1 and Ric8 regulates the number of synapses and neurotransmitter release probability, so it is considered a good therapeutic target for the treatment of diseases in which the synapse is impaired. Based on fluorescence spectroscopy studies, the affinity of compounds for dNCS-1 (neuronal calcium sensor of Drosophila) has been proven. Neuronal calcium sensor NCS-1 is a protein the sequence of which is conserved from yeasts to humans.
The affinity of the compounds for dNCS-1 was measured by means of the fluorescence spectroscopy technique. The emission intensity of the complex is analyzed, where the signal is monitored at increasing concentrations of ligand (1:0 to 1:30 equivalents), keeping the protein concentration […], 30.8 µM, 1 eq.) constant. The affinity constant is thereby obtained through the apparent disassociation constant. […] The experiments are performed at 5°C with dNCS-1 in 50 mM Tris buffer, pH 7.9, 125 mM NaCl, 0.5 mM CaCl2 with 5% DMSO in a total volume of 300 µL. The experiment is performed at the excitation wavelength of 295 nm and at the emission wavelength of 345 nm (maximum emission) depending on the compound in a Jobin Yvon Floromax4 spectrofluorometer equipped with a Peltier Thermostat; the obtained values are the result of the normalized average of the three repetitions for each measurement. […] The affinity constants found for the tested compounds are as follows: […]

[1] = system: flies overexpressing human aβ42arc (D42Gal4> aβ42arc); assay: Number of synapses in a Drosophila melanogaster model for Alzheimer's disease; type: in vivo; details: flies fed with 100 µM throughout the entire life cycle; adult abdominal motor neurons of 20 days; nc82-positive points, confocal images; vs DMSO
Experimental: It has been described above that the expression of the human aβ42arc peptide (Arctic mutation) in motor neurons leads to a reduction in the number of synapses with respect to normal neuromuscular junctions in individuals of the same age, therefore, flies overexpressing human aβ42arc (D42Gal4> aβ42arc) were fed with 100 µM compound A3H3 or with the same amount of solvent, DMSO, throughout the entire life cycle. Adult abdominal motor neurons of 20 days were analyzed and the number of synapses (nc82-positive points) was determined in different flies using confocal images.

[2] = system: Flies overexpressing aβ42arc (D42Gal4> aβ42arc) in their motor neurons; assay: Locomotor activity in a Drosophila melanogaster model for Alzheimer's disease (Drosophila activity monitors); type: in vivo; details: D42Gal4> aβ42arc flies fed 100 µM; total number of beam breaks per hour, two consecutive days; vs DMSO
Experimental: As mentioned, overexpression of the human aβ42arc peptide in the motor neurons of Drosophila melanogaster causes synapse loss and this correlates with a severe locomotor dysfunction. Flies overexpressing aβ42arc (D42Gal4> aβ42arc) in their motor neurons or overexpressing the control (D42Gal4> LacZ) were fed with compound A3H3 at a concentration of 100 µM or with DMSO using the same concentration. Fly locomotor activity was recorded in Drosophila activity monitors (DAM2, Trikinetics) and the total number of beam breaks per hour was analyzed for two consecutive days.

[3] = system: transgenic mice (HD) expressing exon 1 of human huntingtin (strain R6/1); assay: Motor coordination in a mouse model for Huntington's disease; type: in vivo; details: oral, 25 mg/kg, start at 3 months of age, after 6 weeks, significant differences with respect to the rest of groups
From the text: as §1

[4] = apparent dissociation constant, 5°C, 50 mM Tris buffer pH 7.9, 125 mM NaCl, 0.5 mM CaCl2, 5% DMSO, excitation 295 nm, emission 345 nm, three repetitions, read-out: Kd

Row | SMILES | NCS-1/Ric8a interaction (NCS-1/Ric8a interaction) | Kd (dNCS-1; [4]) [µM] | further results
1 | O=C(Cc1c[nH]c2ccccc12)NN=Cc1ccc([N+](=O)[O-])c(O)c1 (mixture of isomers) [A3H3, (E/Z)-N'-(3-hydroxy-4-nitrobenzylidene)-2-(1H-indol-3-yl)acetohydrazide] | allows interaction with Ric8-a; also recorded: promoted NCS-1/Ric8a interaction | 43 ± 6 | increase of the binding of NCS-1 with Ric8a (NCS-1/Ric8a interaction; HEK293 cells transfected with Ric8a-V5 and NCS-1, amount of NCS-1-bound Ric8a-V5 by immunoprecipitation): more than two fold; modulatory activity (NCS-1/Ric8a interaction): exhibited modulatory activity; pathological reduction of the synapse count [1]: greatly suppressed; locomotor impairment due to overexpression of aβ42arc [2]: thoroughly improved; stay time on Rotarod [3]: the same cannot be said; stride length [3]: the same cannot be said
2 | O=C(NN=Cc1ccc([N+](=O)[O-])c(O)c1)c1cc2ccccc2cc1O (mixture of isomers) [A3H19, (E/Z)-3-hydroxy-N'-(3-hydroxy-4-nitrobenzylidene)-2-naphthohydrazide] | promoted NCS-1/Ric8a interaction | – | –
3 | O=C(NN=Cc1ccc(Cl)c([N+](=O)[O-])c1)c1cccs1 (mixture of isomers) [A5H8, (E/Z)-N'-(4-chloro-3-nitrobenzylidene)thiophene-2-carbohydrazide] | – | – | Kd (dNCS-1): 19 ± 8 µM
4 | O=C(NN=Cc1ccc([N+](=O)[O-])c(O)c1)C(O)c1ccccc1 (racemic) [A3H6, (±)-(E/Z)-2-hydroxy-N'-(3-hydroxy-4-nitrobenzylidene)-2-phenylacetohydrazide] | promoted NCS-1/Ric8a interaction | – | –
5 | O=C(N/N=C/c1ccc([N+](=O)[O-])c(O)c1)c1ccco1 [A3H2, (E)-N'-(3-hydroxy-4-nitrobenzylidene)furan-2-carbahydrazide] | – | 32 ± 2 | –
6 | COCCC(=O)N/N=C/c1ccc([N+](=O)[O-])c(O)c1 [A3H4, (E)-N'-(3-hydroxy-4-nitrobenzylidene)-3-methoxypropanehydrazide] | allows interaction with Ric8-a | – | –
7 | CC(C)(C)c1ccc(C(=O)N/N=C/c2ccc([N+](=O)[O-])c(O)c2)cc1 [A3H17, (E)-4-(tert-butyl)-N'-(3-hydroxy-4-nitrobenzylidene)benzohydrazide] | promoted NCS-1/Ric8a interaction | – | –
8 | O=C(N/N=C\c1ccc([N+](=O)[O-])c(O)c1)c1ccc(Cl)s1 [A3H18, (Z)-5-chloro-N'-(3-hydroxy-4-nitrobenzylidene)thiophene-2-carbohydrazide] | promoted NCS-1/Ric8a interaction | – | –
9 | O=C(Cc1c[nH]c2ccccc12)NN=Cc1ccc2ccccc2c1[N+](=O)[O-] [A4H3] | – | – | affinity in the fluorescence technique (dNCS-1): without yielding any positive results
10 | O=C(NN=Cc1ccc2ccccc2c1[N+](=O)[O-])C(O)c1ccccc1 (stereo not drawn) [A4H6] | – | – | affinity in the fluorescence technique (dNCS-1): without yielding any positive results
11 | O=C(NN=Cc1ccc2ccccc2c1[N+](=O)[O-])c1cccs1 [A4H8] | – | – | affinity in the fluorescence technique (dNCS-1): without yielding any positive results
12 | O=C(N/N=C\c1ccc(Cl)c([N+](=O)[O-])c1)c1ccco1 [A5H2, (Z)-N'-(4-chloro-3-nitrobenzylidene)furan-2-carbohydrazide] | allows interaction with Ric8-a; also recorded: promoted NCS-1/Ric8a interaction | 3.2 ± 0.3 | –
13 | O=C(NN=Cc1ccc(Cl)c([N+](=O)[O-])c1)C(O)c1ccccc1 (stereo not drawn) [A5H6] | – | 3.2 ± 0.3 | modulatory activity (NCS-1/Ric8a interaction): exhibited modulatory activity

Now from value to compound, other results behind:

Row | NCS-1/Ric8a interaction (NCS-1/Ric8a interaction) | Kd (dNCS-1; [4]) [µM] | SMILES | further results
14 | – | 4 ± 1 | O=C(NN=Cc1cc(F)ccc1[N+](=O)[O-])c1cccs1 (mixture of isomers) [A7H8, (E/Z)-N'-(5-fluoro-2-nitrobenzylidene)thiophene-2-carbohydrazide] | –
15 | – | 25 ± 4 | O=C(N/N=C/c1cc(F)ccc1[N+](=O)[O-])c1ccco1 [A7H2, (E)-N'-(5-fluoro-2-nitrobenzylidene)furan-2-carbohydrazide] | modulatory activity (NCS-1/Ric8a interaction): exhibited modulatory activity
16 | promoted NCS-1/Ric8a interaction | 7 ± 1 | O=C(N/N=C/c1cc([N+](=O)[O-])ccc1F)c1ccco1 [A8H2, (E)-N'-(2-fluoro-5-nitrobenzylidene)furan-2-carbohydrazide] | –

Source: patent publication EP3858342A1, “ACYLHYDRAZONES FOR THE TREATMENT OF NEUROLOGICAL DISEASES” (Consejo Superior de Investigaciones Científicas (CSIC), priority 2018, dated 2020)
